{"source": "patent US7348401B2", "about": "“Peptides that inhibit complement activation” (priority 2003, dated 2008)"}
{"tested_on": "classical pathway; antibody sensitized sheep erythrocyte cells", "experiment": "Classical pathway hemolytic assay (RBC hemolysis assay)", "type": "cell-based, human", "conditions": "not given", "experimental": "(§1) Inhibition of the classical pathway by the peptides was measured using a standard hemolysis assay, which monitors the lysis of sheep erythrocytes as a result of terminal complex formation (see e.g. FIG. 1, FIG. 10). Various concentrations of peptide were incubated with 50 μL pooled human plasma (diluted 1:30 with GVB^++), 5×10^7 antibody sensitized sheep erythrocyte cells, and GVB^++ buffer to a final volume of 200 μL. The reaction was incubated at 37° C. for one hour and centrifuged. The percentage of lysis was determined by measuring the optical density of the supernatant at 414 nm. 100% lysis was determined by the optical density at 414 nm of the supernatant from a control sample consisting of 5×10^7 antibody sensitized sheep erythrocyte cells in water. The percent inhibition was calculated as the (% lysisno peptide−% lysispeptide)/% lysisno peptide×100."}
{"substance": "Peptide 55: Peptide 50 with arginine at position 3 changed to lysine (DNKWEFPL; complement inhibitor)", "inhibitory activity in RBC hemolysis assay compared with parent peptide": "lowers the inhibiting activity"}
{"substance": "Peptide 61: Peptide 50 with tyrosine substituted for the phenylalanine at position 6 (DNRWEYPL; complement inhibitor)", "inhibitory activity in RBC hemolysis assay compared with parent peptide": "minimal loss of activity"}
{"substance": "120: Peptide 46 with a tri-peptide substituted for X1, third amino acid glutamic acid (TLEVRWEFPL; complement inhibitor) [Peptide 120]", "inhibitory activity in RBC hemolysis assay compared with parent peptide": "enhanced the levels of inhibitory activity"}
{"substance": "Peptide 60: Peptide 50 with tryptophan replacing the phenylalanine at X4 (DNRWEWPL; complement inhibitor)", "inhibitory activity in RBC hemolysis assay compared with parent peptide": "more severe losses"}
{"substance": "112: Peptide 46 with a tri-peptide substituted for X1, third amino acid glutamic acid (EAEVRWEFPL; complement inhibitor) [Peptide 112]", "inhibitory activity in RBC hemolysis assay compared with parent peptide": "enhanced the levels of inhibitory activity"}
{"substance": "Peptide 64: Peptide 50 with leucine replacing the phenylalanine at X4 (DNRWELPL; complement inhibitor)", "inhibitory activity in RBC hemolysis assay compared with parent peptide": "more severe losses"}
{"substance": "Peptide 83: Peptide 46 derivative with a glutamic acid at X1; listed in both the X2 and X1 series (AAEVRWEFPL; complement inhibitor)", "inhibitory activity in RBC hemolysis assay compared with parent peptide": "highest level of inhibitory activity"}
{"substance": "119: Peptide 46 with a tri-peptide substituted for X1, third amino acid glutamic acid (TTEVRWEFPL; complement inhibitor) [Peptide 119]", "inhibitory activity in RBC hemolysis assay compared with parent peptide": "enhanced the levels of inhibitory activity"}
{"substance": "Peptide 54: Peptide 50 with asparagine substituted for the aspartic acid residue (NNRWEFPL; complement inhibitor)", "inhibitory activity in RBC hemolysis assay compared with parent peptide": "little effect on the inhibitory activity"}
{"substance": "Peptide 46: 10-mer: Peptide 13 with the two residues removed from the carboxyl terminus (TQDNRWEFPL; complement inhibitor)", "inhibitory activity in RBC hemolysis assay compared with parent peptide": "appears to increase the activity"}
{"substance": "Peptide 53: Peptide 50 with glutamic acid substituted for the aspartic acid at position 1 (ENRWEFPL; complement inhibitor)", "inhibitory activity in RBC hemolysis assay compared with parent peptide": "appeared to increase the inhibitory activity"}
{"substance": "115: Peptide 46 with a tri-peptide substituted for X1, third amino acid glutamic acid (LAEVRWEFPL; complement inhibitor) [Peptide 115]", "inhibitory activity in RBC hemolysis assay compared with parent peptide": "enhanced the levels of inhibitory activity"}
{"substance": "Peptide 90: Peptide 46 derivative with isoleucine at X1 (TAIVRWEFPL; complement inhibitor)", "inhibitory activity in RBC hemolysis assay compared with parent peptide": "almost comparable activity"}
{"substance": "Peptide 91: Peptide 46 derivative with leucine at X1 (TALVRWEFPL; complement inhibitor)", "inhibitory activity in RBC hemolysis assay compared with parent peptide": "almost comparable activity"}
{"substance": "Peptide 56: Peptide 50 with arginine at position 3 changed to histidine (DNHWEFPL; complement inhibitor)", "inhibitory activity in RBC hemolysis assay compared with parent peptide": "lowers the inhibiting activity"}
{"substance": "Peptide 95: Peptide 46 derivative with proline at X1 (TAPVRWEEPL; complement inhibitor)", "inhibitory activity in RBC hemolysis assay compared with parent peptide": "almost comparable activity"}
{"substance": "Peptide 84: Peptide 46 derivative with a glutamic acid at X1 (TAEVRWEFPL; complement inhibitor)", "inhibitory activity in RBC hemolysis assay compared with parent peptide": "highest level of inhibitory activity"}
{"tested_on": "classical pathway; antibody sensitized sheep erythrocyte cells", "experiment": "Classical pathway hemolytic assay (RBC hemolysis assay)", "type": "cell-based, human", "conditions": "listed as SEQ ID NO 84", "experimental": "as §1"}
{"substance": "Peptide 84: Peptide 46 derivative with a glutamic acid at X1 (TAEVRWEFPL; complement inhibitor)", "inhibitory activity in RBC hemolysis assay compared with parent peptide": "enhanced the levels of inhibitory activity"}
{"tested_on": "classical pathway; antibody sensitized sheep erythrocyte cells", "experiment": "Classical pathway hemolytic assay (RBC hemolysis assay)", "type": "cell-based, human", "conditions": "relative to Peptide 13", "experimental": "as §1", "units": {"original activity retained in RBC hemolysis assay": "%"}}
{"substance": "Peptide 50: eight-mer: Peptide 13 with two amino acids removed from both ends (DNRWEFPL; complement inhibitor)", "original activity retained in RBC hemolysis assay": 100}
{"tested_on": "classical pathway", "experiment": "Classical pathway component assay (immune complex, ELISA for C5a, SC5b-9, C3a)", "type": "biochemical, human", "conditions": "immune complex-classical pathway assay, compared with Peptide 7", "experimental": "The inhibition of the classical pathway by the peptides was measured by incubating human plasma in the presence and absence of peptides with an immune complex generated on a surface and then monitoring for the production of complement components C5a, SC5b-9, and C3a. To generate the immune complex, a 10 mg/mL solution of BSA in PBS was incubated at 56° C. for 30 minutes and then used to coat the surface of a microplate by diluting to 50 μg/mL at pH 9.6 and incubating for one hour at 37° C. The plate was washed and then incubated with 18 μg/mL mouse anti-BSA IgG2a (Sigma) for one hour at 37° C. Pooled human plasma with and without various concentrations of peptide were incubated for 30 minutes at 37° C. with the generated immune complex and the reaction was stopped with the addition of EDTA. The plasma samples were then analyzed with commercially available ELISA's for the production of C5a (Pharmingen), SC5b-9 (Quidel), and C3a (Quidel)."}
{"substance": "20: Peptide 7 with alanine substituted for residue W on the amino-terminal side of the consensus sequence (SFNDLLARWEWP; complement inhibitor) [Peptide 20]", "complement inhibiting activity (C5a and SC5b-9 production), alanine scan of Peptide 7": "slightly greater inhibitory activity"}
{"substance": "19: Peptide 7 with alanine substituted for a residue L on the amino-terminal side of the consensus sequence (SFNDLAWRWEWP; complement inhibitor) [Peptide 19]", "complement inhibiting activity (C5a and SC5b-9 production), alanine scan of Peptide 7": "slightly greater inhibitory activity"}
{"substance": "18: Peptide 7 with alanine substituted for a residue L on the amino-terminal side of the consensus sequence (SFNDALWRWEWP; complement inhibitor) [Peptide 18]", "complement inhibiting activity (C5a and SC5b-9 production), alanine scan of Peptide 7": "slightly greater inhibitory activity"}
